# Experimental data as given in patent publication US8299040B2, “Methods for treating cancer targeting transglutaminase” (Board of Regents, The University of Texas System, priority 2006, dated 2012).
# Tests used:
# [1] = test system: TG2; assay: TG2 expression in pancreatic cancer cell lines (western blot); type: cell-based, human; settings: 4 μM for 48 h, all pancreatic cancer cell lines tested
# Description: (§1) (A) A panel of pancreatic cancer cell lines including MDA-Panc28, Capan-2, Bx-PC3, Panc1 and MIAPaCa cells were treated with Rottlerin (4 μM) for 48 h for the detection of LC3-II and TG2 expression by western blot. (B) MCF-7 cell line was also tested for LC3-II and TG2 expression by western blot. (C) Expression of TG2 in MDA-Panc28 cells was determined upon exposure to different treatments (D) Detection of autophagolysosomes; MDA-Panc28 cells were treated with either control siRNA, Rottlerin or TG2 siRNA for 48 h. Photomicrographs show morphological changes of the cells by phase contrast microscopy (left panels); acridine orange staining of the acidic vesicular organelles by fluorescent microscopy (center panels) and the localization LC3-II at autophagosomes in cells after transfection with GFP-LC3 plasmid (right panels). […]
# (§2) After treatment, the cells were collected and centrifuged, and whole-cell lysates were obtained using a lysis buffer. Total protein concentration was determined using a DC protein assay kit (Bio-Rad, Hercules, Calif., USA). […] Mouse anti-β-actin and donkey anti-mouse secondary antibody were purchased from Sigma Chemical (St. Louis, Mo., USA) so that β-actin expression could be monitored to ensure equal loading of proteins. […] The blots were visualized with a Fluor Chem 8900 imager and quantified by a densitometer using the Alpha Imager application program (Alpha Innotech). […]
# [2] = test system: TG2; assay: TG2 protein expression in MDA-Panc28 cells (western blot); type: cell-based, human; settings: 48 h
# Description: (A) Cells at 80% confluence were treated with 1 μM, 2 μM or 4 μM rottlerin. After 48 h of treatment, the cells were lysed and cell lysates were fractionated by sodium dodecyl sulfate polyacrylamide gel electrophoresis (SDS-PAGE) and transferred onto nitrocellulose membrane to determine PKCδ and TG2 protein expression by western blot analysis. The membrane was stripped and reprobed with an anti-β-actin antibody to confirm equal loading of protein in each lane. (B) Total RNA was extracted, and transcript levels of TG2 and β-actin were determined by RT-PCR analysis as described in Materials and Methods. Relative expression levels were determined by densitometry as compared with β-actin. Experiments were repeated at least three times.
# as §2
# [3] = test system: MCF-7 cells; assay: LC3-II accumulation in TG2-negative MCF-7 cells; type: cell-based, human; settings: MCF-7 (TG2-negative), optimal conditions
# Description: as §1, §2
# [4] = test system: MDA-Panc28 cells; assay: Apoptosis in MDA-Panc28 cells (sub-G1 FACS, PARP cleavage); type: cell-based, human
# Description: PARP cleavage positive cell lysate was used as a positive control. (C) Morphological changes after treatment with rottlerin. Microphotographs were taken using a phase-contrast microscope (300× magnification). Left panel, untreated cells at 48 h of treatment; center panel, cells treated for 48 h, and right panel, cells treated for 96 h.
# [5] = molecular target: T1, PKCδ (Homo sapiens, UniProt Q05655); assay: PKCδ protein expression in MDA-Panc28 cells (western blot); type: cell-based; settings: 48 h
# T1 construct: endogenous in cells; host or cells: MDA-Panc28
# T1 sequence (Q05655 whole entry): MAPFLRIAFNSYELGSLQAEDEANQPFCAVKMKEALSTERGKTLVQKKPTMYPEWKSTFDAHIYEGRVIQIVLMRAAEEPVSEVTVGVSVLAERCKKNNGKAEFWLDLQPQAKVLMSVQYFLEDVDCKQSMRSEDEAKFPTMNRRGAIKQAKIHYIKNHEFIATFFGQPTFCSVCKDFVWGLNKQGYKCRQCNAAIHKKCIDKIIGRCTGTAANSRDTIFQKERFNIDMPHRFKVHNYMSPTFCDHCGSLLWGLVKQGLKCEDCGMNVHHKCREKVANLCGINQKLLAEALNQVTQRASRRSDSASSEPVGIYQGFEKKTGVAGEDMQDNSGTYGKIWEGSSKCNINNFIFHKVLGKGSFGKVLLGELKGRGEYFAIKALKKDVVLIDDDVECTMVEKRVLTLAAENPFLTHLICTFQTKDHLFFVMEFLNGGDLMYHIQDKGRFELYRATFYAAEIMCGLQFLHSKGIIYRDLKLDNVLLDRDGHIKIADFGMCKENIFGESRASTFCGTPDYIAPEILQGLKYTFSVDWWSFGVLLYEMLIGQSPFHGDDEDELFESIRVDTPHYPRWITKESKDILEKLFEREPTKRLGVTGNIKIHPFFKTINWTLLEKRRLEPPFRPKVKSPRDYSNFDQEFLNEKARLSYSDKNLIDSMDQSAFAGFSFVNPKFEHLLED
# Description: (A) Cells at 80% confluence were treated with 1 μM, 2 μM or 4 μM rottlerin. After 48 h of treatment, the cells were lysed and cell lysates were fractionated by sodium dodecyl sulfate polyacrylamide gel electrophoresis (SDS-PAGE) and transferred onto nitrocellulose membrane to determine PKCδ and TG2 protein expression by western blot analysis. […] Experiments were repeated at least three times.
# After treatment, the cells were collected and centrifuged, and whole-cell lysates were obtained using a lysis buffer. Total protein concentration was determined using a DC protein assay kit (Bio-Rad, Hercules, Calif., USA). […] Aliquots containing 30 μg of total protein from each sample were subjected to sodium dodecyl sulfate-polyacrylamide gel electrophoresis (SDS-PAGE) with a 4-20% gradient and electrotransferred to nitrocellulose membranes. The membranes were blocked with 5% dry milk in tris-buffered saline-tween 20 (TBST), probed with primary antibodies diluted in TBST containing 2.5% dry milk and incubated at 4° C. overnight. […] Mouse anti-β-actin and donkey anti-mouse secondary antibody were purchased from Sigma Chemical (St. Louis, Mo., USA) so that β-actin expression could be monitored to ensure equal loading of proteins. […] The blots were visualized with a Fluor Chem 8900 imager and quantified by a densitometer using the Alpha Imager application program (Alpha Innotech). […]
structure (smiles),measurement,setting,value
CC(=O)c1c(O)c(C)c(O)c(Cc2c(O)c3c(c(C(=O)/C=C/c4ccccc4)c2O)OC(C)(C)C=C3)c1O [rottlerin],TG2 expression,[1],parallel decrease in TG2 expression
same,inhibition of TG2 protein expression,[2]; 1 μM,44%
same,inhibition of TG2 protein expression (maximum),[2]; 4 μM,94%
same,LC3-II accumulation,[3],failed to produce any increase in LC3-II accumulation
same,apoptosis (accumulation in sub-G1 phase),"[4]; 4 μM for 48 h, FACS",failed to promote any apoptosis
same,PARP cleavage,[4]; Western blot,failed to show any poly ADP-ribose polymerase (PARP) cleavage
same,inhibition of PKCδ protein expression,[5]; 2 μM,72%
same,inhibition of PKCδ protein expression,[5]; 4 μM,94%
